# Results as given in patent publication US9150530B2, “Esters of 4, 9-dihydroxy-naphtho [2, 3-b] furans for disease therapies” (Zhoushan Haizhongzhou Xinsheng Pharmaceuticals Co., Ltd., priority 2011, dated 2015).
# What was measured:
# [1] = tested on: A549; experiment: Cell viability determination (MTT), A549; type: cell-based; settings: Homo sapiens, A549, lung cancer, 48 hour incubation, read-out: Drug concentrations for 50% cell viability (IC50)
# Description: (§1) Cell Culture: A549, DLD1, SW480, LOVO, HT-29, Hela, U-20S, MES-SA, SK-MEL-28, Panc-1, DU-145, CNE, U251, Eca-109, MGC80-3, QGY-7701, BEL-7404, PLC/PRF/5, Huh-7, and SGC-7901 cells were maintained in Dulbecco's Modified Eagle Medium (DMEM) (imported from Invitrogen, Carlsbad, Calif., USA) supplemented with 10% fetal bovine serum (FBS) (Si Ji Qing, Hangzhou, China) and 1% penicillin/streptomycin/amphotericin B (imported from Invitrogen, Carlsbad, Calif., USA).
# (§2) Cell Viability Determination: Popular MTT method (Archives of Biochemistry and Biophysics, 1993, 303: 474-482) was used to screen the in vitro effects of the invented drugs. Briefly, 5000 to 10000 cells were inoculated per well in a 96-well plate. After overnight incubation, drug was added to the wells at final concentration of 10 μM, […], 2.5 μM, 1.25 μM, or 1 μM, 0.75 μM, 0.5 μM and 0.25 μM in complete culture medium. Each dose level covered 4 equivalent wells. After 48 hour incubation, one tenth volume of 5 mg/mL MTT (thiazolyl blue tetrazolium bromide, Sigma-Aldrich) stock solution was added, and incubation was continued for 2 hours. Then medium was removed and 100 μL of isopropanol solution comprising 86% isopropanol, 4% aqueous 1 N HCl and 10% aqueous SDS solution (10% in concentration) was added. The absorbance of each well at 570 nm wavelength was measured by a micro-plate reader after gentle shaking for 20 minutes. Drug concentrations of 50% cell viability (IC50) were calculated by LOGIT method.
# [2] = tested on: DLD1; experiment: Cell viability determination (MTT), DLD1; type: cell-based; settings: Homo sapiens, DLD-1, DLD1, colorectal cancer, 48 hour incubation, read-out: Drug concentrations for 50% cell viability (IC50)
# Description: as §1, §2
# [3] = tested on: SW480; experiment: Cell viability determination (MTT), SW480; type: cell-based; settings: Homo sapiens, SW480, colorectal cancer, 48 hour incubation, read-out: Drug concentrations for 50% cell viability (IC50)
# Description: as §1, §2
# [4] = tested on: LOVO; experiment: Cell viability determination (MTT), LOVO; type: cell-based; settings: Homo sapiens, colorectal cancer, 48 hour incubation, read-out: Drug concentrations for 50% cell viability (IC50)
# Description: as §1, §2
# [5] = tested on: Hela; experiment: Cell viability determination (MTT), Hela; type: cell-based; settings: Homo sapiens, cervical cancer, 48 hour incubation, read-out: Drug concentrations for 50% cell viability (IC50)
# Description: as §1, §2
# [6] = tested on: U-20S; experiment: Cell viability determination (MTT), U-20S; type: cell-based; settings: osteosarcoma, 48 hour incubation, read-out: Drug concentrations for 50% cell viability (IC50)
# Description: as §1, §2
# [7] = tested on: MES-SA; experiment: Cell viability determination (MTT), MES-SA; type: cell-based; settings: Homo sapiens, leiomyosarcoma, 48 hour incubation, read-out: Drug concentrations for 50% cell viability (IC50)
# Description: as §1, §2
# [8] = tested on: Panc-1; experiment: Cell viability determination (MTT), Panc-1; type: cell-based; settings: Homo sapiens, Panc-1, pancreatic cancer, 48 hour incubation, read-out: Drug concentrations for 50% cell viability (IC50)
# Description: as §1, §2
# [9] = tested on: DU-145; experiment: Cell viability determination (MTT), DU-145; type: cell-based; settings: Homo sapiens, DU-145, prostate cancer, 48 hour incubation, read-out: Drug concentrations for 50% cell viability (IC50)
# Description: as §1, §2
# [10] = tested on: CNE; experiment: Cell viability determination (MTT), CNE; type: cell-based; settings: Homo sapiens, nasopharyngeal cancer, 48 hour incubation, read-out: Drug concentrations for 50% cell viability (IC50)
# Description: as §1, §2
# [11] = tested on: U251; experiment: Cell viability determination (MTT), U251; type: cell-based; settings: Homo sapiens, U-251, U251, glioma, 48 hour incubation, read-out: Drug concentrations for 50% cell viability (IC50)
# Description: as §1, §2
# [12] = tested on: Eca-109; experiment: Cell viability determination (MTT), Eca-109; type: cell-based; settings: Homo sapiens, Eca-109, esophageal cancer, 48 hour incubation, read-out: Drug concentrations for 50% cell viability (IC50)
# Description: as §1, §2
# [13] = tested on: MGC80-3; experiment: Cell viability determination (MTT), MGC80-3; type: cell-based; settings: Homo sapiens, MGC-803, MGC80-3, stomach cancer, 48 hour incubation, read-out: Drug concentrations for 50% cell viability (IC50)
# Description: as §1, §2
# [14] = tested on: QGY-7701; experiment: Cell viability determination (MTT), QGY-7701; type: cell-based; settings: QGY7701, QGY-7701, liver cancer, 48 hour incubation, read-out: Drug concentrations for 50% cell viability (IC50)
# Description: as §1, §2
# [15] = Human plasma incubation, HPLC analysis of degradation products; type: in vitro ADME; settings: 20 μM in human plasma, 37° C., 2 hours
# Procedure: The compounds of formula I were incubated in human plasma at 37° C. for 2 hours, and then the mixtures were treated with acetonitrile to remove protein and the resulting supernatants were analyzed by HPLC (FIG. 2). […] Without wishing to be bound by a particular theory, it is believed that, although not detected due to instability in a protein-free environment, the direct hydrolysis product of a compound of formula I, 4,9-dihydroxy-naphtho[2,3-b]furan, and its partially oxidized product semihydroquinone (shown in scheme 6) co-exist in vivo and play important biological roles.
# HPLC column: Waters Sunfire C18, 250×4.60 mm 5 micron; Mobile phase: buffer A, 90% 5 mM potassium phosphate buffer, pH 6.8, 10% acetonitrile; buffer B, 15% 5 mM potassium phosphate buffer, pH 6.8, 85% acetonitrile; Detector: Waters 2998 Photodiode Array Detector.
# Gradient B: 0-3 min, 50% buffer B, 3-5 min, 50%-100% buffer B, 5-18 min, 100% buffer B, 18-22 min, 100%-50% buffer B, 22-25 min, […]; flow rate, 1 ml/min. Analysis of the 4,9-dihydroxy-naphtho[2,3-b]furan compounds (FIG. 1)
# 10 mM of a compound of formula I or its analog in DMSO (however, compound VI was in DMF) was diluted with human plasma to 20 μM, and the resulting mixtures were incubated at 37° C. for 2 hours. To plasma sample, 9 times volume of acetonitrile was added. The resulting mixtures were vortexed and incubated in dry ice for 30 minutes or in −20° C. freezer for 3 hours, then centrifuged, and supernatant was used for HPLC analysis using gradient B.
# [16] = Metabolism in biological fluid (human whole blood, cancer cell lysate, liver microsomes, mouse oral uptake), HPLC; type: in vitro ADME; settings: liver microsomes or mouse oral uptake system, 20 μM, 37° C.
# Procedure: Second, a major metabolite found after incubation of compound I, III, IV, VI or XIII in biological fluid, such as human whole blood, or cancer cell lysate, or liver microsomes, or mouse oral uptake system, is compound XII (FIG. 3). Similarly, a major metabolite found after incubation of compound V, VII or XIV in biological fluid is 2-(1-hydroxy-n-propyl)-naphtho[2,3-b]furan-4,9-dione (data not shown). Reduction of the position 2 substituent carbonyl group is part of quinone redox reaction as evidenced by the β-lapachone effect on the formation of compound XII in the compound XIII incubation mixture of human whole blood (part D of FIG. 3). The possible reaction mechanism is proposed as shown in scheme 7, in which the two electron reduction could be NQ01 catalyzed reduction or two successive cytochrome b5 reductase or p450 reductase catalyzed reaction. As substrate of these enzymes, β-lapachone could compete for the two electron or single electron reaction and thus reduced formation of the metabolism product.
# Crystalline or amorphous solid of compound was mixed with excipient and suspended in 0.5% carboxymethylcellulose (CMC) solution in a mortar. Then the mixture was orally administered into ICR mouse at the predetermined dosage. At the predetermined time point, blood was drawn from the mouse and stored in the vial containing heparin. The blood samples were centrifuged at 6,000 rpm for 10 min, and plasmas were separated. To each plasma sample, 9 times volume of acetonitrile/methyl trifluoromethanesulfonate (1000:1) or acetonitrile/concentrated HCl (1000:1) was added. The resulting mixtures were vortexed and incubated in dry ice for 30 minutes or in −20° C. freezer for 3 hours, then centrifuged, and supernatants were separated for HPLC analysis using gradient B.
# The biological systems for in vitro metabolism study include: human whole blood stabilized with sodium citrate; cancer cell lysate (obtained using freeze-thaw method, 10 mg/ml in protein concentration for use); liver microsomes with NADPH generation system (prepared according to the protocol provided by iPhase Pharma, Beijing, China);
# 10 mM of a compound of formula I or its analog or compound XIII in DMSO (however, compound VI was in DMF) was added into the biological system to a final concentration of 20 μM. The mixtures were incubated at 37° C. for predetermined time. To each sample, then 9 times volume of acetonitrile was added. The resulting mixtures were vortexed and incubated in dry ice for 30 minutes or in −20° C. freezer for 3 hours, then centrifuged, and supernatants were separated for HPLC analysis using gradient B.
# [17] = tested on: SK-MEL-28; experiment: Cell viability determination (MTT), SK-MEL-28; type: cell-based; settings: Homo sapiens, SK-MEL-28, malignant melanoma, 48 hour incubation, read-out: Drug concentrations for 50% cell viability (IC50)
# Description: as §1, §2
# [18] = tested on: DLD1; experiment: Effect of NQ01 inhibitor (dicumarol) on biological activity, MTT, DLD1; type: cell-based; settings: DLD1 (significant NQ01 enzymatic activity); dicumarol 40 μM; 48 hr
# Procedure: as §2
# (§3) Effect of NQ01 Inhibitor (Dicumarol) on the Biological Activities of 2-acetyl-4,9-diacetoxy-naphtho[2,3-b]furan and Compound XIII (Part B and C of FIG. 4):MTT assay was used for this experiment. Same procedure as described in “Cell Viability Determination” section. […] The viability of cells at each well was read out after 48 hr incubation in cell culture incubator.
# [19] = tested on: Panc-1; experiment: Effect of NQ01 inhibitor (dicumarol) on biological activity, MTT, Panc-1; type: cell-based; settings: Panc-1 (no significant NQ01 enzymatic activity); dicumarol 40 μM; 48 hr
# Procedure: as §2, §3
Structure (SMILES),IC50 [1],IC50 [2],IC50 [3],IC50 [4],IC50 [5],IC50 [6],IC50 [7],IC50 [8],IC50 [9],IC50 [10],IC50 [11],IC50 [12],IC50 [13],IC50 [14],Degradation / detectable products after incubation in human plasma [15],Major metabolite found after incubation in biological fluid [16],IC50 [17],Dicumarol effect on anticancer activity [18],Dicumarol effect on anticancer activity [19]
CC(=O)c1cc2c(OC(=O)C(C)C)c3ccccc3c(OC(=O)C(C)C)c2o1 [compound I],< 2500 nM,< 2500 nM,< 2500 nM,2800 nM,< 2500 nM,5700 nM,< 2500 nM,< 2500 nM,< 2500 nM,2500 nM,< 2500 nM,5500 nM,2500 nM,2.87 µM,the detectable products were compound XIII and partially degraded products,compound XII,,,
"CC(=O)c1cc2c(O)c3ccccc3c(OC(=O)CNC(=O)OC(C)(C)C)c2o1 [compound III, 2-acetyl-4-hydroxy-9-[(tert-butoxycarbonyl)amino]acetoxy-naphtho[2,3-b]furan]",1250 to 2500 nM,1030 nM,1550 nM,3100 nM,1250 to 2500 nM,2500 to 5000 nM,470 nM,1770 nM,1250 to 2500 nM,1870 nM,2070 nM,2550 nM,1650 nM,4.8 µM,,compound XII,890 nM,,
"CC(=O)Oc1c2ccccc2c(OC(C)=O)c2oc(C(C)=O)cc12 [2-acetyl-4,9-bis(acetoxy)-naphtho[2,3-b]furan, reference compound]",1700 nM,1800 nM,860 nM,1100 nM,1200 nM,1000 nM,600 nM,1500 nM,1000 nM,1500 nM,1080 nM,1400 nM,,,the only detectable product was compound XIII,,300 nM,dicumarol attenuates anticancer activities,dicumarol showed little effect
"CC(=O)c1cc2c(OC(=O)C(Cl)Cl)c3ccccc3c(OC(=O)C(Cl)Cl)c2o1 [compound VI, 2-acetyl-4,9-Bis(dichloroacetoxy)-naphtho[2,3-b]furan]",400 nM,900 nM,600 nM,1500 nM,400 nM,800 nM,270 nM,1000 nM,1000 nM,1100 nM,700 nM,800 nM,600 nM,,,compound XII,,,
"CC(=O)c1cc2c(OC(=O)C(C)(C)C)c3ccccc3c(OC(=O)C(C)(C)C)c2o1 [compound II, 2-acetyl-4,9-Bis(pivaloxy)-naphtho[2,3-b]furan]",,> 4000 nM,> 4000 nM,> 4000 nM,,,,3000 nM,,,,> 4000 nM,,,barely degraded,,,,
